According to PMC10377034, “Syntheses of 25-Adamantyl-25-alkyl-2-methylidene-1α,25-dihydroxyvitamin D3 Derivatives with Structure–Function Studies of Antagonistic and Agonistic Active Vitamin D Analogs” (Biomolecules, 2023):

Legend:
[1] = test system: human dedifferentiated fat (DFAT) cells; experiment: Osteogenic differentiation assay: ALP activity in human DFAT cells; assay type: cell-based; details: osteogenic medium, 100 nM, 7 days, natural hormone 1 = 100%
recombinant hVDR-LBD = target: T1, recombinant hVDR-LBD (Homo sapiens, UniProt P11473); details: relative to 1,25(OH)2D3
T1 sequence (P11473 140-427): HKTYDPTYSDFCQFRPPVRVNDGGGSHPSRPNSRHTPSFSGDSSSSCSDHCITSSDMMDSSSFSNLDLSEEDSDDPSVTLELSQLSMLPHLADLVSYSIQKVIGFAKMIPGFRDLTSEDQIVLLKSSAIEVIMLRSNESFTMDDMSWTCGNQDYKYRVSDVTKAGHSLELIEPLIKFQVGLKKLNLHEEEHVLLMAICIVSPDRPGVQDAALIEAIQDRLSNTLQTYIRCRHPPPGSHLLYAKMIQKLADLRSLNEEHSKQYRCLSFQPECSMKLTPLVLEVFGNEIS
Description: The pGEX-hVDR and pGEX were expressed for a GST-VDR fusion protein and a control GST protein, respectively, in Escherichia coli BL21 (Merck, Darmstadt, Germany). The bacteria were lysed by sonication in a sonication buffer (50 mM Tris-HCl, pH 8.0, 50 mM NaCl, 1 mM EDTA, and 1 mM DTT). The supernatant proteins (1 μg) were diluted in a binding buffer (25 mM Tris, pH 7.5, 100 mM KCl, 25 mM DTT, 4 mM CHAPS, pH 7.5) containing bovine serum albumin (100 μg/mL). A solution containing each test compound in 15 μL of EtOH was added to 570 μL of the GST protein solution in each tube. After being vortexed 2–3 times, the mixture was incubated for 30 min at room temperature. […] After being vortexed 2–3 times, the whole mixture was allowed to stand at 4 °C for 20 h, and 400 μL of dextran-coated charcoal solution (Sigma) was added to remove free ligands.
All values represent the means, and error bars are the standard deviations derived from triplicate assays.

[2] = test system: CYP24A1 expression in H292 cells; experiment: CYP24A1 expression (RT-qPCR) in H292 cells; details: H292 lung cells, 100 nM, 24 h
Description: HEK293 human kidney cells (RIKEN Cell Bank, Tsukuba, Japan) were cultured in Dulbecco’s modified Eagle’s medium (DMEM) (Fujifilm Wako Pure Chemical Corporation, Tokyo, Japan) containing 5% fetal bovine serum (FBS), 100 U/mL penicillin, and 0.1 mg/mL streptomycin (Nacalai Tesque, Kyoto, Japan). SW480 human colon carcinoma cells (American Type Culture Collection, Manassas, VA) and HaCaT immortalized keratinocyte cells (kindly provided by Dr. Tadashi Terui, Department of Dermatology, Nihon University School of Medicine) were cultured in DMEM containing 10% FBS, 100 U/mL penicillin, and 0.1 mg/mL streptomycin. MG63 human osteosarcoma cells (RIKEN Cell Bank) and lung-derived H292 cells (American Type Culture Collection) were cultured in minimum essential medium containing 10% FBS, 100 U/mL penicillin, and 0.1 mg/mL streptomycin. […] All cells were cultured at 37 °C in a humidified atmosphere containing 5% CO2.
For gene expression analysis, 1 × 10^4 cells per well were plated in a 24-well plate. After 24 h, the cells were treated with an ethanol control or 100 nM of each test compound for 24 h. […] Real-time PCR was performed on the ABI PRISM 7000 sequence detection system (Thermo Fisher Scientific, Waltham, MA, USA) using Power SYBR Green PCR master mix (Thermo Fisher Scientific).

VDR with NCoR = target: T2, VDR with NCoR (Homo sapiens, UniProt P11473); experiment: Mammalian two-hybrid assay, dissociation of NCoR from the VDR
T2 sequence (P11473 1-427): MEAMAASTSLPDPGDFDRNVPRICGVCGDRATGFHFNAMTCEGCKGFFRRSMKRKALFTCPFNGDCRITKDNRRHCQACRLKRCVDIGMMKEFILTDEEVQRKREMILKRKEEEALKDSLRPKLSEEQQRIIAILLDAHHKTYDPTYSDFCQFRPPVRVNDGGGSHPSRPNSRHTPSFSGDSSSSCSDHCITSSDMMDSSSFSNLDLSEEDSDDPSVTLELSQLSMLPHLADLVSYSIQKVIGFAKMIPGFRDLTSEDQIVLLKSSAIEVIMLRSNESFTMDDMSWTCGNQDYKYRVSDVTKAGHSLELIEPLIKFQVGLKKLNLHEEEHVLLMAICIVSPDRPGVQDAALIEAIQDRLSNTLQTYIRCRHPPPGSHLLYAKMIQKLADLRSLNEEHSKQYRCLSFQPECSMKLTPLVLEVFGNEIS
Description: We used the expression plasmids pCMX-VDR, pCMX-VP16- VDR, pCMX-GAL4-RXRα, pCMX-GAL4-SRC-1, and pCMX-GAL4- N-CoR, as reported previously [43]. […] We used luciferase reporters: VDR-responsive Sppx3-tk-LUC and GAL4-responsive MH100(UAS) × 4-tk-LUC reporters [43].
Transfections of 50 ng of TK-Spp × 3-LUC reporter plasmid, 10 ng of pCMX-β-galactosidase, and 15 ng of pCMX-VDR for each well of a 96-well plate were performed in HEK293 cells using the calcium phosphate coprecipitation method, as described previously [43]. The mammalian two-hybrid assay for cofactor interaction with VDR used 50 ng of TK-MH100(UAS) × 3- LUC reporter plasmid, 10 ng of pCMX-β-galactosidase, 15 ng of pCMX-GAL4-RXRα, pCMX-GAL4-SRC1, or pCMX-GAL4-NCoR, and 15 ng of pCMX-VP16-VDR for each well of a 96-well plate. Luciferase and β-galactosidase activities were measured with a luminometer and a microplate reader (Molecular Devices, Sun Jose, CA, USA), respectively. Luciferase values were normalized to the internal β-galactosidase control.
(B) Effects on the interactions between the VDR and SRC-1. HEK293 cells were co-transfected with CMX-GAL4-SRC-1, CMX-VP16-VDR, and MH100 (UAS) × 4-tk-LUC and were treated with each compound over a range of concentrations. (C) Effects on interactions of the VDR with NCoR-1. HEK293 cells were co-transfected with CMX-GAL4-N-CoR in combination with CMX-VP16-VDR and MH100 (UAS) × 4-tk-LUC and were treated with each compound over a range of concentrations.

C=C1[C@H](O)CC(=C/C=C2\CCC[C@]3(C)[C@@H]([C@H](C)CC#C[C@](O)(CCCC)C45CC6CC(CC(C6)C4)C5)CC[C@@H]23)C[C@H]1O [ADKM6, (25S)-25-(1-Adamantyl)-1α,25-dihydroxy-2-methylidene-26-propyl-23-yne-19,27-dinorvitamin D3]
ALP activity [1]: 62.4% | VDR affinity, % of that of 1,25(OH)2D3 (recombinant hVDR-LBD): 23% | CYP24A1 expression relative to natural hormone 1 [2]: 87.9% | IC50 (VDR with NCoR): 0.4 nM
